According to US9239331B2, “Method for predicting the response to HER2-directed therapy” (Ventana Medical Systems, Inc., priority 2002, dated 2016):

System: breast cancer patients
Assay: Patient response in breast cancer tissue microarray cohort: chemotherapy together with HERCEPTIN®, response from case histories at last follow-up
Assay type: in vivo, human
Conditions: treatment following surgery (followed by Herceptin ®)
Method: Immunohistochemistry for detecting and measuring predictive biomarker expression, activation or both was performed as follows. HER2/neu, EGFR, HER3, IGFR, TGF-α, Heregulin (NDF), p-ERK, p-AKT, and p-S6 ribosomal protein or phosphorylation levels were quantified using alkaline phosphatase or peroxidase techniques and microscope-based image analysis of immunohistochemically stained slides (as described in Bacus et al., 1997, Analyt. Quant. Cytol. Histol. 19: 316-328). Quantification was by means of a CAS 200 image analyzer, as previously described (Bacus & Ruby, 1993, Pathol Annu, 28: 179-204). For the purpose of the analysis, tumors were classified as negative or positive for each antibody based upon the level of staining. Statistical analysis was performed using Systat to quantify frequencies and calculate Pearson Chi-squared tests of significance for interactions between variables. In all cases, the p value refers to the significance of the deviation of the distribution of samples from what would be expected based upon the overall population distribution. Comparisons were performed only on samples for which all relevant data were available. […] All patients had received post-surgical radiotherapy. The tissue samples in the array were taken before treatment. HER2/neu expression had been determined by using the […] system (DAKO, Carpinteria, Calif.) on the original biopsies for all patients. Patient response was based upon the case histories at last follow-up as decided by an independent pathologist provided by Clinomics.

Compound | disease-free or stable disease [%] | relapse [%]
CC(=O)O[C@H]1C(=O)[C@@]2(C)[C@H]([C@H](OC(=O)c3ccccc3)[C@]3(O)C[C@H](OC(=O)[C@H](O)[C@@H](NC(=O)c4ccccc4)c4ccccc4)C(C)=C1C3(C)C)[C@]1(OC(C)=O)CO[C@@H]1C[C@@H]2O [Paclitaxel] | 100 | 0
COc1cccc2c1C(=O)c1c(O)c3c(c(O)c1C2=O)C[C@@](O)(C(=O)CO)C[C@@H]3O[C@H]1C[C@H](N)[C@H](O)[C@H](C)O1 [Doxorubicin] | 2 | 98
